From patent US12247011B2, “Selective inhibitors of NLRP3 inflammasome” (NodThera Limited, priority 2017, dated 2025)
Counter-ions that a name gives are not always drawn. Like-named read-outs stand apart in the source and are kept apart here.

Test system: IL-1β release upon NLRP3 activation in peripheral blood mononuclear cells (PBMC)
Experiment: PBMC IC50 Determination Assay
Type: cell-based
Settings: Homo sapiens, read-out: PBMC IC50
[1] = LPS-primed PBMC, 30 min compound, stimulated with ATP (5 mM) or nigericin (10 μM) for 1 h, IL-1β ELISA

| SMILES | IC50 [1] | IC50 (PBMC) |
| --- | --- | --- |
| CCOC(=O)C(Cn1cncc1C)OC(=O)Nc1c2c(cc3c1CCC3)CCC2 (stereo not drawn) [Compound 81, Ethyl 2-{[(1,2,3,5,6,7-hexahydro-s-indacen-4-yl)carbamoyl]oxy}-3-(5-methyl-1H-imidazol-1-yl)propanoate] | 1000 to 10000 nM | – |
| N#Cc1cnn(C[C@@H](OC(=O)Nc2c3c(cc4c2CCC4)CCC3)C(=O)O)c1 [Compound 82, (2R)-3-(4-cyano-1H-pyrazol-1-yl)-2-{[(1,2,3,5,6,7-hexahydro-s-indacen-4-yl)carbamoyl]oxy}propanoic acid] | 10 to 100 nM | – |
| CCOC(=O)C(Cn1ccnc1C)OC(=O)Nc1c2c(cc3c1CCC3)CCC2 (stereo not drawn) [Compound 84, Ethyl 2-{[(1,2,3,5,6,7-hexahydro-s-indacen-4-yl)carbamoyl]oxy}-3-(2-methyl-1H-imidazol-1-yl)propanoate] | 1000 to 10000 nM | – |
| CCOC(=O)C(Cn1cccn1)OC(=O)Nc1c(Cl)cccc1CC (stereo not drawn) [Compound 85, Ethyl 2-{[(2-chloro-6-ethylphenyl)carbamoyl]oxy}-3-(1H-pyrazol-1-yl)propanoate] | 10 to 100 nM | – |
| CCOC(=O)C(Cn1cccn1)OC(=O)Nc1c(C)ccc2ccccc12 (stereo not drawn) [Compound 86, Ethyl 2-{[(2-methylnaphthalen-1-yl)carbamoyl]oxy}-3-(1H-pyrazol-1-yl)propanoate] | 10 to 100 nM | – |
| CCOC(=O)C(Cn1cccn1)OC(=O)NC1CCCCC1C (stereo not drawn) [Compound 87, Ethyl 2-{[(2-methylcyclohexyl)carbamoyl]oxy}-3-(1H-pyrazol-1-yl)propanoate] | 1000 to 10000 nM | – |
| CCOC(=O)[C@@H](Cn1cc(Cl)cn1)OC(=O)Nc1c2c(cc3c1CCC3)CCC2 [Compound 88, Ethyl (2R)-3-(4-chloro-1H-pyrazol-1-yl)-2-{[(1,2,3,5,6,7-hexahydro-s-indacen-4-yl)carbamoyl]oxy}propanoate] | 10 to 100 nM | – |
| CCOC(=O)[C@@H](Cn1cnc(C#N)c1)OC(=O)Nc1c2c(cc3c1CCC3)CCC2 [Compound 89, Ethyl (2R)-3-(4-cyano-1H-imidazol-1-yl)-2-{[(1,2,3,5,6,7-hexahydro-s-indacen-4-yl)carbamoyl]oxy}propanoate] | 100 to 1000 nM | – |
| CCOC(=O)[C@@H](Cn1cncc1C#N)OC(=O)Nc1c2c(cc3c1CCC3)CCC2 [Compound 90, Ethyl (2R)-3-(5-cyano-1H-imidazol-1-yl)-2-{[(1,2,3,5,6,7-hexahydro-s-indacen-4-yl)carbamoyl]oxy}propanoate] | 1000 to 10000 nM | – |
| CCOC(=O)C(Cn1cccn1)OC(=O)Nc1c(C)cc(C(F)(F)F)cc1C (stereo not drawn) [Compound 91, Ethyl 2-({[2,6-dimethyl-4-(trifluoromethyl)phenyl]carbamoyl}oxy)-3-(1H-pyrazol-1-yl)propanoate] | 1000 to 10000 nM | – |
| CCOC(=O)C(Cn1cc(OC)cn1)OC(=O)Nc1c2c(cc3c1CCC3)CCC2 (stereo not drawn) [Compound 92, Ethyl 2-{[(1,2,3,5,6,7-hexahydro-s-indacen-4-yl)carbamoyl]oxy}-3-(4-methoxy-1H-pyrazol-1-yl)propanoate] | 100 to 1000 nM | – |
| CCOC[C@@H](OC(=O)Nc1c2c(cc3c1CCC3)CCC2)C(=O)OCC [Compound 95, Ethyl (2R)-3-ethoxy-2-{[(1,2,3,5,6,7-hexahydro-s-indacen-4-yl)carbamoyl]oxy}propanoate] | 100 to 1000 nM | – |
| CCOC(=O)[C@@H](Cn1ccc(C#N)n1)OC(=O)Nc1c2c(cc3c1CCC3)CCC2 [Compound 96, Ethyl (2R)-3-(3-cyano-1H-pyrazol-1-yl)-2-{[(1,2,3,5,6,7-hexahydro-s-indacen-4-yl)carbamoyl]oxy}propanoate] | 100 to 1000 nM | – |
| CCOC(=O)[C@@H](Cn1cc(C(F)(F)F)cn1)OC(=O)Nc1c2c(cc3c1CCC3)CCC2 [Compound 97, Ethyl (2R)-2-{[(1,2,3,5,6,7-hexahydro-s-indacen-4-yl)carbamoyl]oxy}-3-[4-(trifluoromethyl)-1H-pyrazol-1-yl]propanoate] | 100 to 1000 nM | – |
| CN(C)Cc1cnn(C[C@@H](OC(=O)Nc2c3c(cc4c2CCC4)CCC3)C(=O)O)c1 [Compound 98, (2R)-3-{4-[(dimethylamino)methyl]-1H-pyrazol-1-yl}-2-{[(1,2,3,5,6,7-hexahydro-s-indacen-4-yl)carbamoyl]oxy}propanoic acid hydrochloride] | – | 1000 to 10000 nM |
| CCOC(=O)C(Cn1cccn1)OC(=O)Nc1c(C)csc1C (stereo not drawn) [Compound 99, Ethyl 2-{[(2,4-dimethylthiophen-3-yl)carbamoyl]oxy}-3-(1H-pyrazol-1-yl)propanoate] | 100 to 1000 nM | – |
| CCOC(=O)C(Cn1cccn1)OC(=O)Nc1c2c(cc3c1OCC3)OCC2 (stereo not drawn) [Compound 100, Ethyl 2-[({4,10-dioxatricyclo[7.3.0.0^3,7]dodeca-1,3(7),8-trien-2-yl}carbamoyl)oxy]-3-(1H-pyrazol-1-yl)propanoate] | 1000 to 10000 nM | – |
| CCOC(=O)[C@@H](COCCOC)OC(=O)Nc1c2c(cc3c1CCC3)CCC2 [Compound 101, Ethyl (2R)-2-{[(1,2,3,5,6,7-hexahydro-indacen-4-yl)carbamoyl]oxy}-3-(2-methoxyethoxy)propanoate] | 100 to 1000 nM | – |
| CCOC(=O)[C@@H](COC1CCOCC1)OC(=O)Nc1c2c(cc3c1CCC3)CCC2 [Compound 102, Ethyl (2R)-2-{[(1,2,3,5,6,7-hexahydro-s-indacen-4-yl)carbamoyl]oxy}-3-(oxan-4-yloxy)propanoate] | 100 to 1000 nM | – |
| CCOC(=O)[C@@H](Cn1ncnc1C)OC(=O)Nc1c2c(cc3c1CCC3)CCC2 [Compound 103, Ethyl (2R)-2-{[(1,2,3,5,6,7-hexahydro-s-indacen-4-yl)carbamoyl]oxy}-3-(5-methyl-1H-1,2,4-triazol-1-yl)propanoate] | 10 to 100 nM | – |
| CCOC(=O)[C@@H](COC(C)C)OC(=O)Nc1c2c(cc3c1CCC3)CCC2 [Compound 104, Ethyl (2R)-2-{[(1,2,3,5,6,7-hexahydro-s-indacen-4-yl)carbamoyl]oxy}-3-(propan-2-yloxy)propanoate] | 1000 to 10000 nM | – |
| CCOC(=O)[C@@H](Cn1cnc(C)n1)OC(=O)Nc1c2c(cc3c1CCC3)CCC2 [Compound 105, Ethyl (2R)-2-{[(1,2,3,5,6,7-hexahydro-s-indacen-4-yl)carbamoyl]oxy}-3-(3-methyl-1H-1,2,4-triazol-1-yl)propanoate] | 10 to 100 nM | – |
| O=C(Nc1c2c(cc3c1CCC3)CCC2)O[C@H](Cc1ncccn1)C(=O)O [Compound 106, (2R)-2-{[(1,2,3,5,6,7-hexahydro-s-indacen-4-yl)carbamoyl]oxy}-3-(pyrimidin-2-yl)propanoic acid] | 100 to 1000 nM | – |
| O=C(Nc1c2c(cc3c1CCC3)CCC2)O[C@H](Cc1cnccn1)C(=O)O [Compound 109, (2R)-2-{[(1,2,3,5,6,7-hexahydro-s-indacen-4-yl)carbamoyl]oxy}-3-(pyrazin-2-yl)propanoic acid] | 100 to 1000 nM | – |
| O=C(Nc1c2c(cc3c1CCC3)CCC2)O[C@H](Cc1cnccn1)C(=O)OC1CCCC1 [Compound 111, Cyclopentyl (2R)-2-{[(1,2,3,5,6,7-hexahydro-s-indacen-4-yl)carbamoyl]oxy}-3-(pyrazin-2-yl)propanoate] | < 10 nM | – |
| N#Cc1cnn(C[C@@H](OC(=O)Nc2c3c(cc4c2CCC4)CCC3)C(=O)OC2CCCC2)c1 [Compound 113, Cyclopentyl (2R)-3-(4-cyano-1H-pyrazol-1-yl)-2-{[(1,2,3,5,6,7-hexahydro-s-indacen-4-yl)carbamoyl]oxy}propanoate] | < 10 nM | – |
| O=C(Nc1c2c(cc3c1CCC3)CCC2)O[C@H](Cn1cncn1)C(=O)O [Compound 114, (2R)-2-{[(1,2,3,5,6,7-hexahydro-s-indacen-4-yl)carbamoyl]oxy}-3-(1H-1,2,4-triazol-1-yl)propanoic acid] | 100 to 1000 nM | – |
